Literature values as cited in US9625464B2, “Fluorescent probe for plasma cell identification and isolation, and plasma cell identification or isolation method using the probe” (NATIONAL UNIVERSITY CORPORATION UNIVERSITY OF TOYAMA, priority 2010, dated 2017).

Target: ATP-sensitive K+ channel
Conditions: read-out: dissociation constant to ATP-sensitive K+ channel

Compound: COc1ccc(Cl)cc1C(=O)NCCc1ccc(S(=O)(=O)NC(=O)NC2CCCCC2)cc1 [glibenclamide]
- Kd: 0.1 to 3.6 nM
